Results: PMC8940841, “A metabolically stable PET tracer for imaging synaptic vesicle protein 2A: synthesis and preclinical characterization of [^18F]SDM-16” (European Journal of Nuclear Medicine and Molecular Imaging, 2021)
Read-outs that look alike come from different tables or passages of the source.

Key:
[1] = Measurement of lipophilicity (octanol / PBS pH 7.4); format: physicochemical; details: octanol/PBS pH 7.4
Protocol: The logP of [^18F]SDM-16 was determined by a method modified from previously published procedures. Briefly, an aliquot of […] (10 µCi) of the radioligand was added to a 2-mL microtube containing 0.8 mL of octanol and 0.8 mL of 1 × phosphate buffered saline (1 × PBS, pH 7.4). The mixture was vortexed for 30 s and then centrifuged at 2000 g for 2 min. A subsample of the octanol (0.1 mL) and 1 × PBS (0.5 mL) layers was evaluated with a gamma counter. The major portion of the octanol layer (0.5 mL) was diluted with another 0.3 mL of octanol, mixed with a fresh portion of 0.8 mL of PBS, vortexed, centrifuged, and analyzed as described above. This process was repeated until consistent log P values were obtained, with five consecutive equilibration procedures being performed for each logP measurement. Four separate measurements were performed for [^18F]SDM-16 on different days.

[2] = Plasma free fraction (fp) by ultrafiltration; format: in vitro ADME, rhesus monkey; details: monkey, plasma (separated from spiked whole blood)
Protocol: The unbound fraction of [^18F]SDM-16 in plasma (fp) of rhesus monkey was measured in triplicate using the ultrafiltration method. Briefly, [^18F]SDM-16 solution was added to 3 mL of whole blood. After incubation at ambient temperature for 5 min, the blood sample was centrifuged at 3900 rpm for 5 min. A sample of the supernatant plasma (0.3 mL) was loaded onto the reservoir of a Centrifree® Ultrafiltration device (Merck Millipore Ltd. Tullagreen, Carrigtwohill, Co. Cork, IRELAND) in triplicate and centrifuged at 1228 g for 20 min. The fp value was calculated as the ratio of radioactivity in the filtrate to that in the plasma.

[3] = design: method as in PMID 33826008; details: 30 min p.i.; cited from earlier work
SV2A [4] = details: cited from earlier work; for VT (baseline): 1TC
[5] = estimated from human; cited from earlier work
SV2A [6] = target: SV2A (Macaca mulatta, UniProt H9EQH8); details: previously determined; cited from earlier work
[7] = Plasma radiometabolite analysis during PET scans; format: in vivo, rhesus monkeys; details: 30 min p.i.
Protocol: Arterial blood samples were collected during the PET scans to measure the radioactivity in plasma for generation of the metabolite-corrected arterial plasma input function. Plasma radiometabolite analysis was performed using the column-switching method, following a published protocol. Briefly, arterial blood samples were collected at 3-, 8-, 15-, 30-, 60-, 90-, 120-, and 180-min post-injection (p. i.), treated with urea (8 M), filtered, and injected onto a self-packed short column (4.6 × 19 mm) eluting with 1% MeCN in water at a flow rate of 2 mL/min. The sample was then back flushed onto a Gemini-NX column (5 μm, 4.6 mm × 250 mm) eluting with 40% MeCN/60% 0.1 M ammonium formate (pH 6.4) at a flow rate of 1.2 mL/min. The eluent was fraction-collected using an automated spectrum chromatography CF-1 fraction collector. Activity in the whole blood, plasma, filtrated plasma-urea mix, filters, and HPLC fractions were counted with automatic gamma well-counter (Wizard 2, PerkinElmer). The sample recovery rate, extraction efficiency, and HPLC fraction recovery were monitored. The unmetabolized [^18F]SDM-16 parent fraction was determined as the ratio of the sum of radioactivity in fractions containing the parent compound to the total amount of radioactivity collected and fitted with inverted Gamma4 approaches.
[^18F]SDM-16 had higher metabolite-corrected plasma SUV than the other SV2A radiotracers, indicating slower plasma clearance and higher metabolic stability (Fig. 2a). Whole-blood and plasma-input functions were highly consistent between the two animals, with a stable plasma to whole-blood ratio of 0.93 ± 0.13 over the entire 180-min acquisition period (Fig. S1).

[8] = Free base fraction in plasma by modified Henderson-Hasselbalch equation (Eq. 1); details: Eq. 1, plasma pH 7.4
[9] = female rhesus macaques, 1-h voiding model; cited from earlier work
[10] = Brain PET imaging with 1TC kinetic modeling; details: rhesus monkey, in vivo
Protocol: (§1) A total of 10 PET imaging experiments with [^18F]SDM-16 were performed in rhesus monkeys (Macaca mulatta) according to a protocol approved by the Yale University Institutional Animal Care and Use Committee (IACUC). Four monkeys were studied. […] Body temperature was maintained by a water-jacket heating pad. The animal was attached to a physiological monitor, and vital signs (heart rate, blood pressure, respirations, SPO2, EKG, ETCO2, and body temperature) were continuously monitored. A venous line was inserted in one limb for administration of radiotracer, displacement, and blocking drugs. A catheter was placed in the femoral artery in the other limb for blood sampling. Dynamic PET brain scans were performed on a Focus 220 system (Siemens Medical Solutions, Knoxville, TN, USA) with a reconstructed image resolution of approximately 1.5 mm. After a 9-min transmission scan, the radioligand was injected i.v. over 3 min. by an infusion pump. Dynamic PET scans were performed for 3 h (baseline and blocking scans) or 4 h (displacement scan).
(§2) PET images were reconstructed with built-in corrections for attenuation, normalization, scatter, randoms, and deadtime. PET brain images were registered to the animal’s MR image, which was subsequently registered to a brain atlas to define the regions of interest. Dynamic images were reconstructed using a Fourier rebinning and filtered back projection algorithm. A rhesus monkey brain atlas was used for generation of regions of interest (ROIs) and time − activity curves (TACs) for the following ROIs: amygdala, brain stem, caudate nucleus, centrum semiovale (CS), cerebellum, cingulate cortex, frontal cortex, globus pallidus, hippocampus, insula, nucleus accumbens, occipital cortex, pons, putamen, substantia nigra, temporal cortex, and thalamus.
(§3) Volume of distribution (VT, mL·cm^−3) values and the first-order kinetic rate constants of tracer (K1) were derived through 1-tissue (1T) compartment kinetic modeling with the metabolite-corrected arterial plasma input function, which was calculated as the product of the fitted total plasma curve and the parent radiotracer fraction curve. Nondisplaceable volume of distribution (VND) and SV2A occupancy by LEV was calculated using the Lassen plot [32]. Nondisplaceable binding potential (BPND) values were calculated from VT values using CS as reference region, or the VND derived from the blocking study, i.e., BPND = (VT, ROI − VT, CS)/ VT, CS or BPND = (VT/VND) -1.

SV2A [11] = assay: Brain PET imaging with 1TC kinetic modeling
Protocol: as §1, §2, §3

[12] = conjugate acid; cited from earlier work

Sequence of SV2A (Macaca mulatta, UniProt H9EQH8) (H9EQH8 1-742): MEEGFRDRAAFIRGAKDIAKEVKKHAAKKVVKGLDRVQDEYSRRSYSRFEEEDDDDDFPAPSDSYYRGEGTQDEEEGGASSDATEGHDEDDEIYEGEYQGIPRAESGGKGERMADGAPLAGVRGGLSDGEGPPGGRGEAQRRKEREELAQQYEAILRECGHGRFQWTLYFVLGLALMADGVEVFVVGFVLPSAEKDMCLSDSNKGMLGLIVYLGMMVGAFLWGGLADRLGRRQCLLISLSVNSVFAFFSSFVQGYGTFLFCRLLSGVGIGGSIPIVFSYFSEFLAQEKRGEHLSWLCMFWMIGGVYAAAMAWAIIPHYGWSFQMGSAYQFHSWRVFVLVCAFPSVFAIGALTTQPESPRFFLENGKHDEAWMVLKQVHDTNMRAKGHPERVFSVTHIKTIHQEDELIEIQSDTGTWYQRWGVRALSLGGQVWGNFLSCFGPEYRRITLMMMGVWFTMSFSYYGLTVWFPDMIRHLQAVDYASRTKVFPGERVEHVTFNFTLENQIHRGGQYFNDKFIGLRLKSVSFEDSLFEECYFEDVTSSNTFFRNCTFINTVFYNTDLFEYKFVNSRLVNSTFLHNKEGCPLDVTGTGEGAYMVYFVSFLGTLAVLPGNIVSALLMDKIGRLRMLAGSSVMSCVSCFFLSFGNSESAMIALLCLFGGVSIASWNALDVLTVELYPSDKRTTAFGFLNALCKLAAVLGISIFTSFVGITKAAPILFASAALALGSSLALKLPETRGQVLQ

O=C1C[C@H](c2cc(F)c(F)c(F)c2)CN1Cc1ccncc1[18F] [[^18F]UCB-H]
logP [1]: 2.31
fraction unbound at 5 min [2]: 0.43
parent fraction in plasma [3]: 30 ± 3%
brain tissue free fraction fND (SV2A [4]; calculated from K1/k2 using 2TCM-c): 6.1%
effective dose (ED) [5]: 15.4 µSv/MBq
VND (SV2A [6]): 7.89 mL/cm^3

Cc1cnccc1CN1C[C@@H](c2cc(F)cc([18F])c2)CC1=O [[^18F]SynVesT-1]
logP [1]: 2.32
fraction unbound at 5 min [2]: 0.43
parent fraction in plasma [7]: 42 ± 13%
fraction present in plasma as free base [8]: 81%
VT (baseline) (SV2A [4]; Amygdala): 24.8 ± 8.5 mL/cm^3
VT (baseline) (SV2A [4]; Brainstem): 16.3 ± 3.6 mL/cm^3
VT (baseline) (SV2A [4]; Caudate): 35.0 ± 6.3 mL/cm^3
VT (baseline) (SV2A [4]; Centrum semiovale): 8.9 ± 2.0 mL/cm^3
VT (baseline) (SV2A [4]; Cerebellum): 28.9 ± 6.8 mL/cm^3
VT (baseline) (SV2A [4]; Cingulate cortex): 48.5 ± 8.9 mL/cm^3
VT (baseline) (SV2A [4]; Frontal cortex): 47.1 ± 9.1 mL/cm^3
VT (baseline) (SV2A [4]; Globus pallidus): 21.6 ± 4.2 mL/cm^3
VT (baseline) (SV2A [4]; Hippocampus): 30.1 ± 5.6 mL/cm^3
VT (baseline) (SV2A [4]; Insular cortex): 46.1 ± 9.2 mL/cm^3
VT (baseline) (SV2A [4]; Nucleus accumbens): 45.2 ± 7.9 mL/cm^3
VT (baseline) (SV2A [4]; Occipital cortex): 43.7 ± 10.7 mL/cm^3
VT (baseline) (SV2A [4]; Putamen): 34.6 ± 4.9 mL/cm^3
VT (baseline) (SV2A [4]; Temporal cortex): 42.2 ± 10.0 mL/cm^3
VT (baseline) (SV2A [4]; Thalamus): 34.2 ± 3.0 mL/cm^3
effective dose (ED) [9]: 20 µSv/MBq
VND (SV2A [6]): 4.96 mL/cm^3
fraction unbound [10]: 0.101
BPND, VND method (SV2A [11]; Amygdala): 4.24 ± 4.05
BPND, VT(CS) method (SV2A [11]; Amygdala): 1.9 ± 1.1
K1 (SV2A [11]; Amygdala): 0.56 ± 0.36 mL/cm^3 per min
BPND, VND method (SV2A [11]; Anterior cingulate): 8.44 ± 4.27
BPND, VT(CS) method (SV2A [11]; Anterior cingulate): 4.1 ± 0.7
K1 (SV2A [11]; Anterior cingulate): 1.05 ± 0.66 mL/cm^3 per min
BPND, VND method (SV2A [11]; Brainstem): 2.30 ± 0.99
BPND, VT(CS) method (SV2A [11]; Brainstem): 0.8 ± 0.0
K1 (SV2A [11]; Brainstem): 1.37 ± 1.26 mL/cm^3 per min
BPND, VND method (SV2A [11]; Caudate): 6.23 ± 2.96
BPND, VT(CS) method (SV2A [11]; Caudate): 3.0 ± 0.4
K1 (SV2A [11]; Caudate): 0.95 ± 0.49 mL/cm^3 per min
BPND, VND method (SV2A [11]; Cerebellum): 4.74 ± 1.81
BPND, VT(CS) method (SV2A [11]; Cerebellum): 2.2 ± 0.2
K1 (SV2A [11]; Cerebellum): 0.88 ± 0.41 mL/cm^3 per min
BPND, VND method (SV2A [11]; Cingulate cortex): 9.04 ± 3.59
BPND, VT(CS) method (SV2A [11]; Cingulate cortex): 4.5 ± 0.4
BPND, VND method (SV2A [11]; Frontal cortex): 8.64 ± 3.59
BPND, VT(CS) method (SV2A [11]; Frontal cortex): 4.3 ± 0.6
K1 (SV2A [11]; Frontal cortex): 0.79 ± 0.39 mL/cm^3 per min
BPND, VND method (SV2A [11]; Globus pallidus): 3.42 ± 1.90
BPND, VT(CS) method (SV2A [11]; Globus pallidus): 1.4 ± 0.3
K1 (SV2A [11]; Globus pallidus): 0.73 ± 0.49 mL/cm^3 per min
in vivo Kd ratio, Kd(tracer)/Kd([^18F]SDM-16) (SV2A [11]; Guo plot of baseline VT): 0.41
BPND, VND method (SV2A [11]; Hippocampus): 5.19 ± 2.56
BPND, VT(CS) method (SV2A [11]; Hippocampus): 2.4 ± 0.4
K1 (SV2A [11]; Hippocampus): 0.68 ± 0.34 mL/cm^3 per min
BPND, VND method (SV2A [11]; Insular cortex): 8.41 ± 3.27
BPND, VT(CS) method (SV2A [11]; Insular cortex): 4.2 ± 0.3
K1 (SV2A [11]; Insular cortex): 0.93 ± 0.48 mL/cm^3 per min
K1 (SV2A [11]; Mean ± SD over brain regions): 0.91 ± 0.28 mL/cm^3 per min
BPND, VND method (SV2A [11]; Nucleus accumbens): 8.41 ± 3.54
BPND, VT(CS) method (SV2A [11]; Nucleus accumbens): 4.1 ± 0.4
K1 (SV2A [11]; Nucleus accumbens): 0.99 ± 0.63 mL/cm^3 per min
BPND, VND method (SV2A [11]; Occipital cortex): 7.61 ± 2.51
BPND, VT(CS) method (SV2A [11]; Occipital cortex): 3.9 ± 0.2
K1 (SV2A [11]; Occipital cortex): 0.88 ± 0.47 mL/cm^3 per min
BPND, VND method (SV2A [11]; Putamen): 6.41 ± 2.96
BPND, VT(CS) method (SV2A [11]; Putamen): 2.9 ± 0.4
K1 (SV2A [11]; Putamen): 1.25 ± 0.82 mL/cm^3 per min
BPND, VND method (SV2A [11]; Temporal cortex): 7.36 ± 2.64
BPND, VT(CS) method (SV2A [11]; Temporal cortex): 3.7 ± 0.3
K1 (SV2A [11]; Temporal cortex): 0.74 ± 0.34 mL/cm^3 per min
BPND, VND method (SV2A [11]; Thalamus): 6.59 ± 3.72
BPND, VT(CS) method (SV2A [11]; Thalamus): 2.9 ± 0.7
K1 (SV2A [11]; Thalamus): 0.93 ± 0.71 mL/cm^3 per min

lutidine
pKa exp. [12]: 6.77
